In patent US20220257597A1, “Methods of Administering Elagolix” (AbbVie Inc., priority 2021, published 2022):
“Also recorded” adds a separate entry of the source.

Experiments:
[1] = Pre- and postnatal development study in rats; assay type: in vivo, rat; conditions: for maternal plasma concentration relative to maximal elagolix concentration (Cmax) in humans at the MRHD: lactation day 21
Experimental: In a pre- and postnatal development study in rats, elagolix was given in the diet to achieve doses of 0, 100 and 300 mg/kg/day (25 per dose group) from gestation day 6 to lactation day 20. […] Pup survival was decreased from birth to postnatal day 4. […] Smaller body size and effect on startle response were associated with lower pup weights at 300 mg/kg/day. Post-weaning growth, development and behavioral endpoints were unaffected.

[2] = biological target: T1, rat gonadotropin-releasing hormone (GnRH) receptor (Rattus norvegicus, UniProt P30969); assay: Binding to rat versus human GnRH receptor; conditions: rat vs human GnRH receptor
T1 sequence (P30969 1-327): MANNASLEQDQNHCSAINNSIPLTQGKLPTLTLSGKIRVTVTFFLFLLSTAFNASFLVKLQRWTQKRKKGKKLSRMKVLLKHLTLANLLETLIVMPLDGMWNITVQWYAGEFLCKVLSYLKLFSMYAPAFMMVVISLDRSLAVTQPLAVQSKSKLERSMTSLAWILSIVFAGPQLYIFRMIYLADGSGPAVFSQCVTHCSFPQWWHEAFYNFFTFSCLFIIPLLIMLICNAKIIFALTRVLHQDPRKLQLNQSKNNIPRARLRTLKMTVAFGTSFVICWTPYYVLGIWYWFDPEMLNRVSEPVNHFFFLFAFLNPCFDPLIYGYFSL

[3] = biological target: T2, OATP1B1 transporter protein (Homo sapiens, UniProt Q9Y6L6, V174A); assay: Pharmacogenomics: elagolix plasma concentrations by SLCO1B1 521 genotype; assay type: in vivo; conditions: women with two reduced function alleles
T2 construct: Hepatic uptake of elagolix involves the OATP1B1 transporter protein; from tissue; host or cells: liver of patients (in vivo)
T2 sequence (Q9Y6L6 1-691 V174A): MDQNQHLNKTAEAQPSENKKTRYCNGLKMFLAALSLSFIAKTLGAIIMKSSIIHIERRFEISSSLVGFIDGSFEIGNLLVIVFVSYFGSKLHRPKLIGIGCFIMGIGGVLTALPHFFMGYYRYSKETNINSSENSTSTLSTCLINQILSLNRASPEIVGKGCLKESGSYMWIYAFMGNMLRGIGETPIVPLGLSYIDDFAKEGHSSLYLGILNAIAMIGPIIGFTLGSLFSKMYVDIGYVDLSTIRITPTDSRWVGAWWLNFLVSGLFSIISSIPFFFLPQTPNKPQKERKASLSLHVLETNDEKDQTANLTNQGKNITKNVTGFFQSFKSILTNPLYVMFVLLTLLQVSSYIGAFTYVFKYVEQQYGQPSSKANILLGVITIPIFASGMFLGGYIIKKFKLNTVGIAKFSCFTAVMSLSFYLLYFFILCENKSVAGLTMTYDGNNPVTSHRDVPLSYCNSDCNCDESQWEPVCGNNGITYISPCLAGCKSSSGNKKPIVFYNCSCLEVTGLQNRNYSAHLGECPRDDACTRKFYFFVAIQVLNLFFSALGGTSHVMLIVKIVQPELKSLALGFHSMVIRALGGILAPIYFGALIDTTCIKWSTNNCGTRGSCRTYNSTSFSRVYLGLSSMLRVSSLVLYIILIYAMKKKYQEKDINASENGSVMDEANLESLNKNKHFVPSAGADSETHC
Source text: Hepatic uptake of elagolix involves the OATP1B1 transporter protein. Higher plasma concentrations of elagolix have been observed in patients who have two reduced function alleles of the gene that encodes OATP1B1 (SLCO1B1 521T>C) (these patients are likely to have reduced hepatic uptake of elagolix; and thus, higher plasma elagolix concentrations). The frequency of this SLCO1B1 521 C/C genotype is generally less than 5% in most racial/ethnic groups. Women with this genotype are expected to have approximately 2-fold higher elagolix mean concentrations compared to women with normal transporter function (i.e., SLCO1B1 521T/T genotype). Adverse effects of elagolix have not been fully evaluated in subjects who have two reduced function alleles of the gene that encodes OATP1B1 (SLCO1B1 521T>C).

[4] = Embryofetal development study in the rabbit
Experimental: Embryofetal development studies were conducted in the rat and rabbit. Elagolix was administered by oral gavage to pregnant rats (25 animals/dose) at doses of 0, 300, 600 and 1200 mg/kg/day and to rabbits (20 animals/dose) at doses of 0, 100, 150, and 200 mg/kg/day, during the period of organogenesis (gestation day 6-17 in the rat and gestation day 7-20 in the rabbit).

[5] = pregnant rabbits, 150 mg/kg/day

## COc1cccc(-c2c(C)n(Cc3c(F)cccc3C(F)(F)F)c(=O)n(C[C@H](NCCCC(=O)O)c3ccccc3)c2=O)c1F [elagolix, 4-((R)-2-[5-(2-fluoro-3-methoxy-phenyl)-3-(2-fluoro-6-trifluoromethyl-benzyl)-4-methyl-2,6-dioxo-3,6-dihydro-2H-pyrimidin-1-yl]-1-phenyl-ethylamino)-butyric acid]
[1]
  post-weaning growth, development and behavioral endpoints: unaffected
[1]; 100 mg/kg/day
  maternal plasma concentration relative to maximal elagolix concentration (Cmax) in humans at the MRHD: 0.04 fold
[1]; 300 mg/kg/day
  litter findings at the highest dose: two dams had total litter loss, and one failed to deliver
  maternal plasma concentration relative to maximal elagolix concentration (Cmax) in humans at the MRHD: 0.1 fold
[1]; 300 mg/kg/day, pre-weaning period
  pup birth weights and body weight gains: lower birth weights and lower body weight gains
[1]; highest dose
  pup survival from birth to postnatal day 4: decreased
[2]
  binding to the rat GnRH receptor, fold less than to the human GnRH receptor: ~1000 fold
[3]
  elagolix mean concentrations, SLCO1B1 521 C/C genotype compared to SLCO1B1 521T/T genotype: approximately 2 fold
[4]; pregnant rabbits
  highest, maternally toxic dose with spontaneous abortions and total litter loss, as multiple of the MRHD based on AUC: 7 times the MRHD
[4]; [5]
  findings at lower non-maternally toxic dose: A single total litter loss
  non-maternally toxic dose with total litter loss, as multiple of the MRHD: 4 times the MRHD
[4]; pregnant rabbits, oral gavage, gestation day 7-20
  findings at the highest, maternally toxic dose: three spontaneous abortions and a single total litter loss
[4]; rabbit, any dose level tested
  fetal malformations / structural abnormalities: no structural abnormalities; also recorded: No fetal malformations
